Where “and” joins values, the source holds several entries; their conditions need not be identical. Equal values may be shown once.
Tests used:
[1] = target: Muscarinic acetylcholine receptor M1 (Homo sapiens) (UniProt P11229); assay: Agonist activity at human mAChR1 receptor expressed in F1pIn CHO cells assessed as induction of intracellular calcium mobilization
[2] = target: Muscarinic acetylcholine receptor M1 (Homo sapiens) (UniProt P11229); assay: Displacement of [3H]NMS from human mAChR1 receptor expressed in F1pIn CHO cells after 60 mins by scintillation counting analysis
[3] = target: Muscarinic acetylcholine receptor M1 (Homo sapiens) (UniProt P11229); assay: Partial agonist activity at human mAChR1 receptor expressed in F1pIn CHO cells assessed as induction of intracellular calcium mobilization

Muscarinic acetylcholine receptor M1 (Homo sapiens), sequence (P11229 whole entry, looked up): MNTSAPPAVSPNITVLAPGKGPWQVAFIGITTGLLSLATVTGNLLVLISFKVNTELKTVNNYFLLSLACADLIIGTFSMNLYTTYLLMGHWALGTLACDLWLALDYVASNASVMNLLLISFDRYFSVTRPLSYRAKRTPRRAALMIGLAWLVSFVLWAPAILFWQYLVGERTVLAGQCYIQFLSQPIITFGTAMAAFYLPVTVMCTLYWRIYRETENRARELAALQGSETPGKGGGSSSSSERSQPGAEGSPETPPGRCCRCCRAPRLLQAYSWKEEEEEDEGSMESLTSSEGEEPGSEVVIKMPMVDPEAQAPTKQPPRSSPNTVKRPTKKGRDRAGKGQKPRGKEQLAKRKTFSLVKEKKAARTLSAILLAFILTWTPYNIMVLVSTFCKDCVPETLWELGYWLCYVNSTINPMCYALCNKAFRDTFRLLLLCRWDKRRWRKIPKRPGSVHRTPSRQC

Row | SMILES | EC50 [1] | IC50 [2] | EC50 [3]
1 | O=C(Cc1ccccc1)NC1CCN(CCCN2C(=O)COc3ccccc32)CC1 [N-{1-[3-(3-Oxo-2,3-dihydrobenzo[1,4]oxazin-4-yl)propyl]-piperidin-4-yl}-2-phenylacetamide] | 0.129 µM | 8.53 µM and 8.51 µM | –
2 | O=C1COc2ccccc2N1CCCN1CCN(c2nsc3ccccc23)CC1 | – | 4.19 µM and 4.17 µM | 1.04 µM and 1.05 µM
3 | COc1ccccc1N1CCN(CCCN2C(=O)COc3ccccc32)CC1 | – | 5.18 µM and 5.13 µM | –
4 | O=C1COc2ccccc2N1CCCN1CCC(c2noc3cc(F)ccc23)CC1 | – | 3.25 µM and 3.24 µM | –
5 | O=C1COc2ccccc2N1CCCN1CCN(c2cccc(Cl)c2Cl)CC1 | – | 1.86 µM and 1.87 µM | –
6 | O=C1COc2ccccc2N1CCCN1CCN(c2cccc3[nH]c(=O)oc23)CC1 | – | 4.27 µM and 4.26 µM | –

From BindingDB's records for doi:10.1021/jm5013243 (Monash University (Parkville Campus), 2015)
